Experiments:
Format in all cases: physicochemical
[1] = Thermal treatment test: yellow coloration index after heating; conditions: for Yellow coloration index After-Before: difference after minus before thermal test, 100 ppm antioxidant; for Yellow coloration index after thermal test: isosorbide solution with 100 ppm antioxidant, 245°C for 40 minutes under nitrogen
Procedure: (§1) The yellow coloration index, expressed in YID units, was measured using a Colorflex EZ from Hunterlab according to ASTM E313. The spectrophotometer is a sealed optics, 256-elements diode array, having a 400-700 nm spectral range and a high-resolution concave holographic grating. 55 grams of composition are placed at 65°C, in a 64 mm diameter cylindric cell including a ring and white disk cap. The coloration of the composition was measured as a liquid at 65°C.
(§2) The method hereafter is described for isosorbide as the chemical compound having at least one heterocycle, and is also applicable to any chemical compound having at least one heterocycle.
The thermal stability of compositions of isosorbide, was studied according to the following protocol: 70 g of a 80 wt% solution of isosorbide in water was placed in a three-necked round flask and inerted with high purity nitrogen (purity >99.9%) during 10 minutes at a flowrate of around 2000 mL/min. The product was then heated at 245°C using an oil bath for 40 minutes under a 500 mL/min nitrogen flowrate. Then the product was cooled down to 80°C under the same nitrogen flowrate and yellow coloration measurement (YID value) was measured immediately.
Coloration before and after "thermal treatment" as well as their difference is related to the product thermal stability, i.e. to the sensitivity of the product to oxidation.

[2] = Yellow coloration index measurement (ASTM E313), before thermal treatment; conditions: isosorbide solution with 100 ppm antioxidant, measured as a liquid at 65°C
Procedure: as §1

[3] = PetroOxy test: induction time (resistance to oxidation)
Text: The resistance of compositions according to the invention to oxidation may indeed be characterized by this measurement called the "PetroOxy test" which consists in measuring over time the pressure inside a cell loaded with a sample of composition exposed to an initial pressure of dioxygen and a constant temperature. The protocol of this test is described below after.
as §2
3 grams of a purified 50 wt% dry matter isosorbide solution in distilled water with or without the addition of antioxidant are weighed precisely in a glass cup and then placed in the hermetic enclosure of the measuring device "PetroOxy" model 13-3002 from Petrotest, now Anton Paar GmbH. The air present in the cell is purged 3 times at room temperature with pure oxygen via a pressurized cylinder (Alphagas, purity >99.5%). The temperature and working pressure of pure oxygen is then set at 120°C and 700 kPa (7 bars) of oxygen. The pressure is continuously monitored during the experiment. The decrease in pressure in the test chamber is due to oxygen consumption during oxidation reactions of the sample studied. The variation in relative pressure during the experiment makes it possible to determine the time after which the sample begins its degradation by oxidation, which is called induction time, also referred as "OIT", under the test conditions.
The induction time of the sample is determined as follows:
The relative pressure of oxygen consumption is given by the relation (Pmax -Pt)/Pmax. Pmax is the maximum pressure attained by the system during the measurement, corresponding to the maximum pressure at the beginning of time, and Pt is the pressure as a function of time when oxygen is consumed. The induction time of the sample is given by the inflection point of the oxygen consumption curve, i.e. the intersection of the two linear domains as shown on figure Fig.1.
The longer the induction time, the greater the oxidation resistance of the sample. To calculate precisely this parameter, a calculation method by linear regression between the two-line segments before and after the inflection point is performed.

[4] = isosorbide aqueous solution with 100 ppm antioxidant, 120°C and 7 bars of oxygen
[5] = listed as 4,4'-dihydroxy-benzophenone

Row | Structure (SMILES) | Yellow coloration index After-Before [1] | Yellow coloration index after thermal test [1] | Yellow coloration index after thermal test ([1]; listed as benzophenone) | Yellow coloration index before thermal test [2] | % versus no antioxidant ([3]; change of induction time versus isosorbide solution without antioxidant (3.5 h), 100 ppm antioxidant) | Induction time [3, 4] | Yellow coloration index after thermal test [1, 5] | Yellow coloration index before thermal test [2, 5] | Yellow coloration index after thermal test ([1]; listed as 2-hydroxy-4-methoxy-benzophenone) | Induction time (hours) ([3]; isosorbide aqueous solution with 100 ppm antioxidant, 120°C and 7 bars of oxygen, listed as 2-hydroxy-4-methoxy benzophenone)
1 | O=C(c1ccccc1)c1ccccc1 [Sample 2.1, Benzophenone] | 6.4 YID | 7.7 YID | lower than 10 YID | 1.3 YID | about 9% | 3.8 h |  |  |  | 
2 | O=C(c1ccc(O)cc1)c1ccc(O)cc1 [Sample 2.2, 4,4'-dihydroxy-benzophenone] | 5.1 YID | 9.3 YID |  | 4.2 YID |  | 3.9 h | lower than 10 YID | lower than 10 YID |  | 
3 | COc1ccc(C(=O)c2ccccc2)c(O)c1 [Sample 2.3, 2-hydroxy-4-methoxybenzophenone] | 3.9 YID | 6.1 YID |  | 2.2 YID |  | 4.6 h |  |  | below 7 YID | around 4,6 hours
4 | COc1ccc(C(=O)c2ccccc2O)c(O)c1 [Sample 2.4, 2,2'-dihydroxy-4-methoxybenzophenone] | 37 YID | 49.3 YID |  | 12.3 YID |  | 5.2 h |  |  |  | 
5 | CCCOC(=O)c1cc(O)c(O)c(O)c1 [Sample 3, Propyl gallate, reference compound] | 5.2 YID | 14.3 YID |  | 9.1 YID |  |  |  |  |  | 

— patent EP4527906A1, “OXIDATION RESISTANT COMPOSITIONS OF DINAHYDROHEXITOLS CONTAINING BENZOPHENONE OR ITS DERIVATIVES” (ROQUETTE FRERES, priority 2023, dated 2025)
